According to patent US20230172897A1, “METHODS OF TREATING BREAST CANCERS WITH SELECTIVE ANDROGEN RECEPTOR MODULATORS AND ADDITIONAL THERAPEUTIC AGENTS” (VERU, INC., priority 2021, published 2023):
Where “and” joins values, the source holds several entries; their conditions need not be identical. Equal values may be shown once.

What was measured:
[1] = Protocol G100402, Phase 1 multiple ascending dose study; type: in vivo, healthy male volunteers
Excerpt: These include: 1. Protocol G100401, a Phase 1 single ascending dose study in 96 healthy, young, male volunteers; 2. Protocol G100402, a Phase 1 multiple ascending dose study in 50 healthy, young, male volunteers, and 23 elderly male volunteers with truncal obesity; 3. Protocol G100503, a Phase 1 single dose pharmacokinetic study to assess the effect of a dosage regimen that simulates a sustained release formulation to an immediate release formulation in 18 healthy, young male volunteers and 18 postmenopausal women; 4. Protocol G100506, a Phase 1 single dose pharmacokinetic study to assess the relative bioavailability of a 3 mg […] formulation to be used during continued clinical development and to assess the effect of food on the pharmacokinetics of the 3 mg softgel formulation in 27 healthy, young, male volunteers; 5. Protocol 006, a Phase 1 single dose and multiple dose pharmacokinetic study in 24 postmenopausal, Japanese women; 6. Protocol G200501, a Phase 2 study in 60 postmenopausal women and 60 elderly men to assess lean body mass and physical function; 7. Protocol 003, a Phase 1b study in 44 postmenopausal women; 8. Protocol G200502, a Phase 2b study in 159 men and postmenopausal women with cancer to assess lean body mass and physical function; 9.
Both 10 mg and 30 mg daily doses were evaluated in Protocol G100402 for up to 14 days. Elevated alanine transaminase (ALT) (any elevation outside upper limit of normal [ULN]) was the most common adverse event (AE) experienced. None of the subjects in the 10 mg dose group were discontinued from the study due to ALT elevations. In the 30 mg dose group, six subjects experienced ALT increases above two times the ULN.
Reductions in sex hormone binding globulin (SHBG) have been identified as one of the most sensitive serum biomarkers for AR signaling in healthy volunteers and patients.

[2] = test system: metastatic or locally advanced ER+/AR+ breast cancer; assay: Phase 2 clinical trial (G200802), 9 mg or 18 mg daily; type: in vivo, postmenopausal women; conditions: for Best overall objective tumor response: CR (number) / Best overall objective tumor response: PR (number): all evaluable patients; for Average rPFS / Clinical Benefit Response Rate / Clinical Benefit Responses (CR + PR + SD) / Median rPFS / Objective Response Rate / Objective Responses (CR + PR): measurable disease at baseline
Protocol: Each dose arm was treated independently, and each assessed for efficacy using Simon's two-stage (optimal) design (Simon R. Optimal two-stage designs for Phase 2 clinical trials. Controlled Clinical Trials 1989; 10: 1-10). Subjects were randomized in a 1:1 fashion to one of the two dose arms.
Randomization was stratified by subjects presenting with bone only metastases and all other subjects, and further by setting of immediately preceding therapy (adjuvant setting or metastatic setting) in order to balance the proportion of subjects with these presenting features in each dose arm.
Thirty-six to eighty-eight (36-88) subjects with centrally confirmed AR+ who received at least one dose of study drug (evaluable subjects) were needed for primary efficacy analysis purposes and were a subset of the full analysis set (FAS). Fifty patients in the 9 mg cohort and 52 patients in the 18 mg cohort met these criteria. […] Other statistical parameters that were part of the sample size calculation are α=0.025 (one-sided) and power=90%. The first stage in each study arm was assessed among the first 18 evaluable subjects. Greater than 3/18 subjects achieved CB (defined as CR, PR, or SD) at week 24, and both arms proceeded to the second stage of recruitment up to a total of 44 evaluable subjects per arm. Otherwise, the arm would have been discontinued for lack of efficacy. Statistical significance, i.e., rejection of the null hypothesis of an unacceptably low CBR of ≤10% in favor of the alternative hypothesis that indicated the higher rate, ≥30%, was more likely, would be declared if at least 9/44 subjects achieved CB at week 24 in that arm.
These patients on the study had measurable disease at baseline and an AR staining prior to entry into the study. The radiographic imaging in this patient population was done every 12 weeks (2.7 months). Therefore, the minimum radiographic progression free survival (rPFS) that could be determined is approximately 2.7 months. 90% of the patients in the study had previously received non-endocrine based chemotherapy. The patients in this study had failed an average of 2 prior treatment lines for metastatic disease (range=0-5). FIG. 43 provides a scatterplot for the patients in this study with regard to the correlation between % AR-positive staining at baseline (% AR staining) and rPFS. […] However, in patients with greater than or equal to 40% AR-positive staining, the rPFS was delayed to variable extents (scatter plot pattern) in many to most cases. A positive correlation between rPFS and % AR staining was seen above the threshold of 40% AR staining. To explore this positive correlation further, several subgroups of AR % staining were defined and analyzed for metrics of efficacy, as shown in Table 14.

Q: For `C[C@](O)(COc1ccc(C#N)cc1)C(=O)Nc1ccc(C#N)c(C(F)(F)F)c1` [Formula IX, (S)—N-(4-Cyano-3-(trifluoromethyl)phenyl)-3-(4-cyanophenoxy)-2-hydroxy-2-methylpropanamide], which “subjects discontinued due to ALT elevations” value ([1]; 10 mg dose group) is on record?
A: None

Q: What about the “subjects with ALT increases above two times the ULN” value ([1]; 30 mg dose group) of the same compound?
A: six

Q: What about the “reduction of SHBG” value ([1]; PO 1 mg daily for 14 days) of the same compound?
A: 15.1%

Q: What about the “reduction of SHBG” value ([1]; PO 3 mg daily for 14 days) of the same compound?
A: 15.6%

Q: What about the “reduction of SHBG” value ([1]; PO 10 mg daily for 14 days) of the same compound?
A: 18.2%

Q: And the “reduction of SHBG” value ([1]; PO 30 mg daily for 14 days)?
A: 18.4%

Q: What about the tolerability ([1]; daily doses up to 30 mg) of the same compound?
A: well tolerated

Q: What about the “clinical benefit rate at 6 months” value ([2]; 9 mg) of the same compound?
A: 32%

Q: What about the “Quality of life assessments” value ([2]; 9 mg and 18 mg cohorts) of the same compound?
A: significant improvement from baseline

Q: And the tolerability ([2]; 9 mg and 18 mg doses)?
A: well tolerated

Q: And the “response rate in patients previously treated with palbociclib and failed” value ([2]; 9 mg arm, 3 patients)?
A: 33%

Q: And the “Median duration of clinical benefit” value ([2]; 9 mg group)?
A: not reached

Q: What about the “Best overall objective tumor response: CR (number)” value ([2]; 9 mg, post-hoc) of the same compound?
A: 3

Q: What about the “Best overall objective tumor response: PR (number)” value ([2]; 9 mg, post-hoc) of the same compound?
A: 8

Q: And the “Average rPFS” value ([2]; 9 mg, % AR staining 20-40)?
A: 2.51 months

Q: And the “Clinical Benefit Response Rate” value ([2]; 9 mg, % AR staining 20-40)?
A: 22%

Q: What about the “Clinical Benefit Responses (CR + PR + SD)” value ([2]; 9 mg, % AR staining 20-40) of the same compound?
A: 2

Q: What about the “Median rPFS” value ([2]; 9 mg, % AR staining 20-40) of the same compound?
A: 2.77 months

Q: And the “Objective Response Rate” value ([2]; 9 mg, % AR staining 20-40)?
A: 0%

Q: What about the “Objective Responses (CR + PR)” value ([2]; 9 mg, % AR staining 20-40) of the same compound?
A: 0

Q: And the “Average rPFS” value ([2]; 9 mg, % AR staining 40-60)?
A: 4.62 months

Q: What about the “Clinical Benefit Response Rate” value ([2]; 9 mg, % AR staining 40-60) of the same compound?
A: 86%

Q: What about the “Clinical Benefit Responses (CR + PR + SD)” value ([2]; 9 mg, % AR staining 40-60) of the same compound?
A: 6

Q: What about the “Median rPFS” value ([2]; 9 mg, % AR staining 40-60) of the same compound?
A: 2.93 months

Q: What about the “Objective Response Rate” value ([2]; 9 mg, % AR staining 40-60) of the same compound?
A: 43%

Q: What about the “Objective Responses (CR + PR)” value ([2]; 9 mg, % AR staining 40-60) of the same compound?
A: 3

Q: And the “Average rPFS” value ([2]; 9 mg, % AR staining 60-80)?
A: 8.10 months

Q: And the “Clinical Benefit Response Rate” value ([2]; 9 mg, % AR staining 60-80)?
A: 80%

Q: And the “Clinical Benefit Responses (CR + PR + SD)” value ([2]; 9 mg, % AR staining 60-80)?
A: 8

Q: What about the “Median rPFS” value ([2]; 9 mg, % AR staining 60-80) of the same compound?
A: 5.60 months

Q: What about the “Objective Response Rate” value ([2]; 9 mg, % AR staining 60-80) of the same compound?
A: 60%

Q: What about the “Objective Responses (CR + PR)” value ([2]; 9 mg, % AR staining 60-80) of the same compound?
A: 6

Q: What about the “Average rPFS” value ([2]; 9 mg, % AR staining <20) of the same compound?
A: 2.83 months

Q: And the “Clinical Benefit Response Rate” value ([2]; 9 mg, % AR staining <20)?
A: 15%

Q: What about the “Clinical Benefit Responses (CR + PR + SD)” value ([2]; 9 mg, % AR staining <20) of the same compound?
A: 2

Q: What about the “Median rPFS” value ([2]; 9 mg, % AR staining <20) of the same compound?
A: 2.70 months

Q: What about the “Objective Response Rate” value ([2]; 9 mg, % AR staining <20) of the same compound?
A: 0%

Q: What about the “Objective Responses (CR + PR)” value ([2]; 9 mg, % AR staining <20) of the same compound?
A: 0

Q: What about the “Average rPFS” value ([2]; 9 mg, % AR staining <40) of the same compound?
A: 2.7 months and 2.70 months

Q: What about the “Clinical Benefit Response Rate” value ([2]; 9 mg, % AR staining <40) of the same compound?
A: 18%

Q: What about the “Clinical Benefit Responses (CR + PR + SD)” value ([2]; 9 mg, % AR staining <40) of the same compound?
A: 4

Q: And the “Median rPFS” value ([2]; 9 mg, % AR staining <40)?
A: 2.72 months

Q: What about the “Objective Responses (CR + PR)” value ([2]; 9 mg, % AR staining <40) of the same compound?
A: 0

Q: What about the “Average rPFS” value ([2]; 9 mg, % AR staining <60) of the same compound?
A: 3.17 months

Q: And the “Clinical Benefit Response Rate” value ([2]; 9 mg, % AR staining <60)?
A: 34%

Q: And the “Clinical Benefit Responses (CR + PR + SD)” value ([2]; 9 mg, % AR staining <60)?
A: 10

Q: What about the “Median rPFS” value ([2]; 9 mg, % AR staining <60) of the same compound?
A: 2.77 months

Q: What about the “Objective Response Rate” value ([2]; 9 mg, % AR staining <60) of the same compound?
A: 10%

Q: What about the “Objective Responses (CR + PR)” value ([2]; 9 mg, % AR staining <60) of the same compound?
A: 3

Q: What about the “Average rPFS” value ([2]; 9 mg, % AR staining >40) of the same compound?
A: 7.15 months

Q: What about the “Clinical Benefit Response Rate” value ([2]; 9 mg, % AR staining >40) of the same compound?
A: 80%

Q: And the “Clinical Benefit Responses (CR + PR + SD)” value ([2]; 9 mg, % AR staining >40)?
A: 20

Q: And the “Median rPFS” value ([2]; 9 mg, % AR staining >40)?
A: 5.47 months

Q: What about the “Objective Responses (CR + PR)” value ([2]; 9 mg, % AR staining >40) of the same compound?
A: 12

Q: What about the “Average rPFS” value ([2]; 9 mg, % AR staining >60) of the same compound?
A: 8.14 months

Q: What about the “Clinical Benefit Response Rate” value ([2]; 9 mg, % AR staining >60) of the same compound?
A: 78%

Q: What about the “Clinical Benefit Responses (CR + PR + SD)” value ([2]; 9 mg, % AR staining >60) of the same compound?
A: 14

Q: What about the “Median rPFS” value ([2]; 9 mg, % AR staining >60) of the same compound?
A: 5.60 months

Q: And the “Objective Response Rate” value ([2]; 9 mg, % AR staining >60)?
A: 50%

Q: And the “Objective Responses (CR + PR)” value ([2]; 9 mg, % AR staining >60)?
A: 9

Q: And the “Average rPFS” value ([2]; 9 mg, % AR staining >80)?
A: 8.18 months

Q: What about the “Clinical Benefit Response Rate” value ([2]; 9 mg, % AR staining >80) of the same compound?
A: 75%

Q: And the “Clinical Benefit Responses (CR + PR + SD)” value ([2]; 9 mg, % AR staining >80)?
A: 6

Q: What about the “Median rPFS” value ([2]; 9 mg, % AR staining >80) of the same compound?
A: 6.23 months

Q: And the “Objective Response Rate” value ([2]; 9 mg, % AR staining >80)?
A: 38%

Q: What about the “Objective Responses (CR + PR)” value ([2]; 9 mg, % AR staining >80) of the same compound?
A: 3

Q: What about the “median duration of response in patients with an objective tumor response” value ([2]; 9 mg, post-hoc) of the same compound?
A: 8.18 months

Q: What about the “responders with duration of response >12 months” value ([2]; 9 mg, post-hoc) of the same compound?
A: 25%

Q: What about the “responders with duration of response ≥6 months” value ([2]; 9 mg, post-hoc) of the same compound?
A: 67%

Q: What about the “clinical benefit rate at 6 months” value ([2]; 18 mg) of the same compound?
A: 29%

Q: And the “response rate in patients previously treated with palbociclib and failed” value ([2]; 18 mg arm, 6 patients)?
A: 33%

Q: And the “Median duration of clinical benefit” value ([2]; 18 mg group)?
A: 14.1 months

Q: What about the “Best overall objective tumor response: CR (number)” value ([2]; 18 mg, post-hoc) of the same compound?
A: 1

Q: What about the “Best overall objective tumor response: PR (number)” value ([2]; 18 mg, post-hoc) of the same compound?
A: 5

Q: What about the “patients with an objective response after progression on estrogen blocking agents and CDK 4/6 inhibitor” value ([2]; AR nuclei staining ≥40% (7 patients), post-hoc) of the same compound?
A: 3 patients

Q: And the “objective response rate after progression on estrogen blocking agents and CDK 4/6 inhibitor” value ([2]; AR nuclei staining ≥60% subgroup (4 patients))?
A: 75%

Q: What about the “first stage: subjects achieving CB at week 24” value ([2]; both arms (9 mg, 18 mg), first 18 evaluable subjects) of the same compound?
A: Greater than 3/18
